Measurements taken from PMC8097242, “Galectin-4 N-Terminal Domain: Binding Preferences Toward A and B Antigens With Different Peripheral Core Presentations” (Frontiers in Chemistry, 2021).
Values belong to the compound of their own block, whether it stands above or below them.

Key:
Format in all cases: binding
[1] = molecular target: T1, N-terminal CRD of hGalectin-4 (Gal-4N) (Homo sapiens, UniProt P56470); experiment: 1H Saturation Transfer Difference (STD) NMR epitope mapping
T1 construct: N-terminal CRD of hGalectin-4 (amino acids 1–150, including an additional C-terminus His-Tag); His-Tag (C, cleaved yes); made in house; host or cells: E. coli BL21 (pET29b)
T1 sequence (P56470 1-150): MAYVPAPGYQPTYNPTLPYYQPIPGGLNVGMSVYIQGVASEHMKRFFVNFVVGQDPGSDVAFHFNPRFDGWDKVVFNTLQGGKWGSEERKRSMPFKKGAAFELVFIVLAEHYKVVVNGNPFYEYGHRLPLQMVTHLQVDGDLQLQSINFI
Method: ^1H-saturation transfer difference NMR spectra were acquired for mixtures of Gal-4N (50 μM) with a 50-fold excess of ligand. Protein aromatic irradiation afforded the best STD intensities and thus these are discussed henceforth. The STD NMR spectra were very similar among the different ligands with respect to both the observed glycan protons and their intensities. […] Severe proton overlapping precluded a full comparison among ligands, but key isolated ^1H NMR resonance signals permitted to highlight evident differences.
All the STD NMR experiments were performed using an 800 MHz Bruker spectrometer with a cryoprobe (Bruker, Billerica, MA, United States). The samples were prepared in the corresponding deuterated buffer. The temperature was 288 K for every experiment. An amount of 50 μM of the lectin with 50 equivalents of the ligand was employed for every experiment except for lactose, for which a 1:70 ratio was used. The STD spectra were acquired with 1,024 scans, 2 s of saturation time using a train of 50 ms Gaussian-shaped pulses, and 3 s of relaxation delay. The spin-lock filter applied to remove the signals of the lectin was set at 40 ms. The on-resonance frequency was set for the aromatic region at 6.58 ppm, while the off-resonance frequency was set at 100 ppm.
Supplementary Table S1. Relative STD-AF (Amplification factor) and STD percentage of each non overlapping proton of each ligand.

[2] = molecular target: T1, N-terminal CRD of hGalectin-4 (Gal-4N); experiment: 1H-15N HSQC NMR-based titrations (chemical shift perturbation) of 15N-labeled Gal-4N; settings: HSQC NMR-based titration, 50 μM 15N-labeled lectin, 298 K; read-out: KD (μM) (NMR)
Method: The molecular recognition event was also analyzed from the perspective of the lectin. Thus, a chemical shift perturbation (CSP) analysis of the changes produced in the ^1H-^15N HSQC spectra recorded for ^15N-labeled Gal-4N upon addition of the different ligands was carried out. This analysis required the NH backbone NMR assignment of the lectin signals, following well-established triple resonance 3D NMR methods (see Materials and methods and Supplementary Information). The assignment protocol allowed assigning 80% of the NH backbone resonances. In addition to the ligands shown in Scheme 1, the corresponding non-fucosylated analogs and the H antigens (devoid of the terminal Gal/GalNAc moieties, see Supplementary Information), as well as lactose, were also employed. Thus, a full comparative analysis on the monosaccharide-specific effects on the lectin CSP was achieved.
The total volume for the NMR samples was 500/μl. The lectin was in phosphate-buffered saline (50 mM sodium phosphate, 150 mM NaCl, pH 7.4), either in D2O or 90:10 H2O:D2O depending on the NMR experiment. The pH was adjusted with the required amount of NaOH and HCl or NaOD and DCl.
experiments were acquired using an 800 MHz Bruker spectrometer with a cryoprobe (Bruker, Billerica, MA, United States). The samples were prepared using 50 μM of the ^15N-labeled lectin in the corresponding buffer in a 90:10 H2O:D2O ratio. The experiments were performed at 298 K. Six to nine points were recorded for each ligand and CSP and KD were calculated using CcpNmr Analysis 2.4.2.

[3] = molecular target: T1, N-terminal CRD of hGalectin-4 (Gal-4N); experiment: Isothermal titration calorimetry (ITC); settings: for Kd: PBS pH 7.4, single binding site model
Method: Isothermal titration calorimetry experiments were performed using the MicroCal PEAQ-ITC calorimeter (Malvern Panalytical, Malvern, United Kingdom). Samples containing 100–200 μM of Gal-4N in PBS (50 mM sodium phosphate, pH 7.4, 300 mM NaCl) were titrated with stocks of 3–10 mM in PBS of glycans 4, 5, 7, 8, 9, and 11. During the automated experiment, small aliquots (2–3 μL) of the sugar stocks were added to the cell containing the lectin. Curve fitting to a single binding site model was performed with the MicroCal Origin 7 software.
Isothermal titratrion calorimetry (ITC). Isothermal Titration Calorimetry experiments were performed using MicroCal PEAQ-ITC calorimeter. Samples containing 100-200 µM of Gal-4N in PBS (50 mM sodium phosphate pH 7.4, 300 mM NaCl) were titrated with stocks of 3-10 mM in PBS of glycans A type 1, A type 2, A type 6, B type 1, B type 2 and B type 6. During the automated experiment, small aliquots (2-3 µL) of the sugar stocks were added to the cell containing the lectin. The association constants and the thermodynamic profile of the binding was calculated from the fitting of the titration data to a single binding site model.

[4] = 1H-residue H4GalNAc (B type 4, core GalNAc)
[5] = 1H-residue H4GalNAc (terminal, A type 6)
[6] = 1H-residue NHAcGlcNAc (B type 1: first of two lines)
[7] = 1H-residue NHAcGlcNAc (B type 1: second of two lines)

- STD% ([1]; 1H-residue H1 Fuc): 21%
- STD-AF ([1]; 1H-residue H1 Fuc): 0.0020
- STD% ([1]; 1H-residue H1Galα): 100%
- STD-AF ([1]; 1H-residue H1Galα): 0.0094
- STD% ([1]; 1H-residue H1Galβ): 49%
- STD-AF ([1]; 1H-residue H1Galβ): 0.0046
- STD% ([1]; 1H-residue H2Galβ): 47%
- STD-AF ([1]; 1H-residue H2Galβ): 0.0044
- STD% ([1]; 1H-residue H3Galα): 44%
- STD-AF ([1]; 1H-residue H3Galα): 0.0041
- STD% [1, 4]: 30%
- STD-AF [1, 4]: 0.0028
- STD% ([1]; 1H-residue H4Galβ): 68%
- STD-AF ([1]; 1H-residue H4Galβ): 0.0064
- STD% ([1]; 1H-residue H5Galβ): 86%
- STD-AF ([1]; 1H-residue H5Galβ): 0.0081
- STD% ([1]; 1H-residue MetFuc): 10%
- STD-AF ([1]; 1H-residue MetFuc): 0.0009
- STD% ([1]; 1H-residue NHAc (B type 4)): 36%
- STD-AF ([1]; 1H-residue NHAc (B type 4)): 0.0034
- Kd [2]: 460 µM
SMILES: CC(=O)NC1C(OC2C(O)C(O)OC(CO)C2O)OC(CO)C(O)C1OC1OC(CO)C(O)C(OC2OC(CO)C(O)C(O)C2O)C1OC1OC(C)C(O)C(O)C1O (centres unmarked) [B type-4 (penta)]

- STD% ([1]; 1H-residue H1 Fuc): 13%
- STD-AF ([1]; 1H-residue H1 Fuc): 0.0020
- STD% ([1]; 1H-residue H1GalNAc): 82%
- STD-AF ([1]; 1H-residue H1GalNAc, 50:1 ligand:lectin, 288 K): 0.0129
- STD% ([1]; 1H-residue H1Galβ): 58%
- STD-AF ([1]; 1H-residue H1Galβ): 0.0091
- STD% ([1]; 1H-residue H1Glca): 21%
- STD-AF ([1]; 1H-residue H1Glca): 0.0033
- STD% ([1]; 1H-residue H1Glcb): 18%
- STD-AF ([1]; 1H-residue H1Glcb): 0.0028
- STD% ([1]; 1H-residue H2GalNAc): 51%
- STD-AF ([1]; 1H-residue H2GalNAc): 0.0081
- STD% ([1]; 1H-residue H2Glca / H2Glcα): 34%
- STD-AF ([1]; 1H-residue H2Glca / H2Glcα): 0.0054
- STD% ([1]; 1H-residue H2Glcb / H2Glcβ): 30%
- STD-AF ([1]; 1H-residue H2Glcb / H2Glcβ): 0.0048
- STD% ([1]; 1H-residue H3Galβ): 39%
- STD-AF ([1]; 1H-residue H3Galβ): 0.0061
- STD% ([1]; 1H-residue H3Glcb / H3Glcβ): 32%
- STD-AF ([1]; 1H-residue H3Glcb / H3Glcβ): 0.0050
- STD% [1, 5]: 16%
- STD-AF [1, 5]: 0.0025
- STD% ([1]; 1H-residue H4Galβ): 60%
- STD-AF ([1]; 1H-residue H4Galβ): 0.0095
- STD% ([1]; 1H-residue H5Galβ): 100%
- STD-AF ([1]; 1H-residue H5Galβ): 0.0158
- STD% ([1]; 1H-residue MetFuc): 10%
- STD-AF ([1]; 1H-residue MetFuc): 0.0016
- STD% ([1]; 1H-residue NHAc GalNAc): 100%
- STD-AF ([1]; 1H-residue NHAc GalNAc): 0.0158
- Kd [2]: 150 µM
- -TΔS (kcal mol^–1) (ITC) [3]: 2.9 kcal mol^–1
- ΔG (kcal mol^–1) (ITC) [3]: −5.6 kcal mol^–1
- ΔH (kcal mol^–1) (ITC) [3]: −8.5 kcal mol^–1
- increased affinity of type-6 vs corresponding type-2 antigen ([3]; Glc vs GlcNAc at reducing end, β1–4 linked): two-fold
- Kd [3]: 86 µM
SMILES: CC(=O)NC1C(OC2C(O)C(CO)OC(OC3C(CO)OC(O)C(O)C3O)C2OC2OC(C)C(O)C(O)C2O)OC(CO)C(O)C1O (centres unmarked) [A type-6 (tetra)]

- STD% ([1]; 1H-residue H1 Fuc): 0%
- STD-AF ([1]; 1H-residue H1 Fuc): 0.0000
- STD% ([1]; 1H-residue H1Galα): 56%
- STD-AF ([1]; 1H-residue H1Galα): 0.0053
- STD% ([1]; 1H-residue H1Galβ): 70%
- STD-AF ([1]; 1H-residue H1Galβ): 0.0066
- STD% ([1]; 1H-residue H1GlcNAc): 16%
- STD-AF ([1]; 1H-residue H1GlcNAc): 0.0015
- STD% ([1]; 1H-residue H2Galα): 35%
- STD-AF ([1]; 1H-residue H2Galα): 0.0033
- STD% ([1]; 1H-residue H2GlcNAc): 29%
- STD-AF ([1]; 1H-residue H2GlcNAc): 0.0027
- STD% ([1]; 1H-residue H3GlcNAc): 38%
- STD-AF ([1]; 1H-residue H3GlcNAc): 0.0036
- STD% ([1]; 1H-residue H4Galβ): 74%
- STD-AF ([1]; 1H-residue H4Galβ): 0.0070
- STD% ([1]; 1H-residue H4GlcNAc): 53%
- STD-AF ([1]; 1H-residue H4GlcNAc): 0.0050
- STD% ([1]; 1H-residue H5Galα): 23%
- STD-AF ([1]; 1H-residue H5Galα): 0.0022
- STD% ([1]; 1H-residue H5Galβ): 100%
- STD-AF ([1]; 1H-residue H5Galβ): 0.0094
- STD% ([1]; 1H-residue MetFuc): 14%
- STD-AF ([1]; 1H-residue MetFuc): 0.0013
- STD% [1, 6]: 141%
- STD-AF [1, 6]: 0.0133
- STD% [1, 7]: 59%
- STD-AF [1, 7]: 0.0055
- STD% ([1]; Average NHAc): 100%
- STD-AF ([1]; Average NHAc): 0.0094
- Kd [2]: 200 µM
- -TΔS (kcal mol^–1) (ITC) [3]: 2.3 kcal mol^–1
- ΔG (kcal mol^–1) (ITC) [3]: −5.4 kcal mol^–1
- ΔH (kcal mol^–1) (ITC) [3]: −7.7 kcal mol^–1
- Kd [3]: 109 µM
SMILES: CC(=O)N[C@@H]1[C@@H](O[C@@H]2O[C@H](CO)[C@H](O)[C@H](O[C@H]3O[C@H](CO)[C@H](O)[C@H](O)[C@H]3O)[C@H]2O[C@@H]2O[C@@H](C)[C@@H](O)[C@@H](O)[C@@H]2O)[C@H](O)[C@@H](CO)O[C@H]1O [B type-1 (tetra)]
